For data set [1], the target named is T1, human recombinant histamine H3R (Homo sapiens, UniProt Q9Y5N1).
T1 construct: expressed in transfected cells
The following applies: mean [CI 95%]; read-out: hH3R Ki; cited from earlier work.

Data set [2] concerns the target T2, hH1R (Homo sapiens, UniProt P35367).
T2 construct: SP (signal peptide) (N); expressed in transfected cells
Also on record: method as in PMID 33261900. To be noted: cited from earlier work.

Data set [3] concerns the target T3, σ2R (Rattus norvegicus, UniProt Q5U3Y7).
T3 sequence (Q5U3Y7 1-176): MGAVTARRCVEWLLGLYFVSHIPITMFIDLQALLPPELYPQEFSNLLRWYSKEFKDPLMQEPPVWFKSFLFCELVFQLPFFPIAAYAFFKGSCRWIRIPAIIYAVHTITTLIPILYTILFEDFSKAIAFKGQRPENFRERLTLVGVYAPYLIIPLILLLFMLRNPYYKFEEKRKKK
Put plainly: σ2R radioligand binding ([3H]DTG, liver membranes).

The next data set has as its target σ1R (Cavia porcellus, UniProt Q60492). The data set is described as follows: σ1R radioligand binding ([3H](+)-pentazocine, brain cortex membranes).
The next data set addresses T4, human H3R (Homo sapiens, UniProt Q9Y5N1).
T4 construct: expressed in transfected cells
On the set-up: method as in PMID 33261900. To be noted: antagonist mode; read-out: hH3R Kb; cited from earlier work.

The subject of a further data set is female CD1 mice. The data set is described as follows: loperamide-induced antinociception, paw pressure struggle response latency. The data set is classed as in vivo. The following applies: for functional character at σ1 receptor deduced in vivo: from potentiation of loperamide antinociception and reversal by PRE-084; for effect on loperamide-induced antinociception: injected paw; for effect alone on struggle response latency to mechanical stimulus: 450 g paw pressure, without loperamide.

The target of data set [4] is T2, hH1R. Put plainly: hH1R radioligand binding ([3H]mepyramine). To be noted: HEK293T cells; oxalate form. The method, then:
(§1) Compounds (as oxalate salts) were tested in H3R in vitro binding studies, using methods described previously.[47],[48] […] Radioligand binding experiments at the H1R, H2R, and H4R were performed as previously described in Rosier et al.[70] and Bartole et al.[71] with HEK293T-SP-FLAG-hHxR (x = 1, 2, or 4) expressing the respective hHR. […] Data represent mean values ± CI from three independent experiments, each performed in triplicate. The normalized competition binding curves were then fitted with a four-parameter logistic fit yielding IC50 values using Prism 8.4.3 software (GraphPad, SanDiego, CA). The Ki values were estimated from the Cheng–Prusoff equation.[74]

The target in a further data set is T5, hH4R (Homo sapiens, UniProt Q9H3N8).
T5 construct: SP (signal peptide) (N); expressed in transfected cells
The data set is described as follows: hH4R radioligand binding ([3H]UR-PI294). The following applies: HEK293T cells; oxalate form. The method, then: as §1

A further data set addresses T6, hH2R (Homo sapiens, UniProt P25021).
T6 construct: SP (signal peptide) (N); expressed in transfected cells
The data set is described as follows: hH2R radioligand binding ([3H]UR-DE257). To be noted: HEK293T cells; oxalate form. The method, then:
as §1

The conditions of data set [5]: quoted for comparison of basicity; no reference given; cited from earlier work.
For data set [6], the system named is σ2R. The following applies: cited from earlier work.
In a further data set the test system is σ2 receptor. To be noted: cited from earlier work.
Another data set concerns the target σ1 receptor. The following applies: read-out: EC50, functional agonism of σ1 receptor-mediated calcium flux; cited from earlier work. In general terms: Calcium flux is commonly read through the fluorescence of an indicator in the cells.
Data set [7] concerns the target T1, human recombinant histamine H3R. The data set is described as follows: hH3R radioligand depletion binding assay ([3H]Nα-methylhistamine). The following applies: mean [CI 95%]; HEK293 cells; data not published yet.
Where [8] appears, read: exptl Ki σ2, Table 3, given as mean ± spread.
Setting [9] is: σ2R Ki, mean [CI 95%], [3H]DTG with (+)-pentazocine mask.
Where [10] appears, read: exptl Ki σ1, Table 3, given as mean ± spread.
Setting [11] is: σ1R Ki, mean [CI 95%], [3H](+)-pentazocine.
Where [12] appears, read: mice, ipl 100 μg + loperamide 4 mg/kg sc.

As a reminder, the Ki is the dissociation constant of the complex between target and ligand, obtained from inhibition or displacement. As a reminder, the Kb is the affinity of an antagonist, worked out from how it opposes an agonist. Broadly, the pKa is the negative logarithm of the acid dissociation constant. For orientation: IC50 means the concentration that gives 50% inhibition. Usually EC50 stands for the concentration giving half of the maximal effect.

“And” between values parts separate entries of the source, which are not always exact repeats. Equal values may be shown once. Where a name gives a salt, the structure may show the parent alone. Read-outs that look alike come from different tables or passages of the source.

T1 sequence (Q9Y5N1 whole entry): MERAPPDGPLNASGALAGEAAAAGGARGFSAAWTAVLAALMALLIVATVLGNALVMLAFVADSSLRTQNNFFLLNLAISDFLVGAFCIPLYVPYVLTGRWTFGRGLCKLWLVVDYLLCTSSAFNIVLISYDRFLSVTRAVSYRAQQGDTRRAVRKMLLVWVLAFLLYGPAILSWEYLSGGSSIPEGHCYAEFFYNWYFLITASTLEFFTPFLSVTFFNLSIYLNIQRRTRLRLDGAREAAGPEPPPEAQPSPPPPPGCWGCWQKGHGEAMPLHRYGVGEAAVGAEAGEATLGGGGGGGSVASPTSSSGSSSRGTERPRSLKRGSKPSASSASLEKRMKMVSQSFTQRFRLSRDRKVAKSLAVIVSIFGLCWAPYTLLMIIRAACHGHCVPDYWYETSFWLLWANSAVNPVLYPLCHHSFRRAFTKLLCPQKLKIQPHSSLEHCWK
Sequence of σ1R (Q60492 whole entry): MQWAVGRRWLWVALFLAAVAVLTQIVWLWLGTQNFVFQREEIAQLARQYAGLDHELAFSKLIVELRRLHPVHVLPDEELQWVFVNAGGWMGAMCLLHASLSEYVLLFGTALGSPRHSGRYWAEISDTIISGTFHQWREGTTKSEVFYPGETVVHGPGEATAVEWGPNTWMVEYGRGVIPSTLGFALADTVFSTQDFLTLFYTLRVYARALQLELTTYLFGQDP
T2 sequence (P35367 whole entry): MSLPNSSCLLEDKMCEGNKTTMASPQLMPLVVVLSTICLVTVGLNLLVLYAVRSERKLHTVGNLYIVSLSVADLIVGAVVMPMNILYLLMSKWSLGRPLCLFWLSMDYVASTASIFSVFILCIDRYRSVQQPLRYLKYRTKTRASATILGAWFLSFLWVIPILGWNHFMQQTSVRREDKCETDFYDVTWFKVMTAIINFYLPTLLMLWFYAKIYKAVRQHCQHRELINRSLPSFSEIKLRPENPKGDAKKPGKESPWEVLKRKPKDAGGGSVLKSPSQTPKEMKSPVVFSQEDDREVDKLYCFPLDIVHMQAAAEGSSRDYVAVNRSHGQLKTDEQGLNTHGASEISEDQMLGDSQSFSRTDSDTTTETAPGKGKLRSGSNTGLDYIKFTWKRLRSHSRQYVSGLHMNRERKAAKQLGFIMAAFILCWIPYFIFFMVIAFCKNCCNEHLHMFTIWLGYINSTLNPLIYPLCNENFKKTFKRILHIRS
T4 sequence (Q9Y5N1 whole entry): as the sequence (Q9Y5N1 whole entry) above
T5 sequence (Q9H3N8 whole entry): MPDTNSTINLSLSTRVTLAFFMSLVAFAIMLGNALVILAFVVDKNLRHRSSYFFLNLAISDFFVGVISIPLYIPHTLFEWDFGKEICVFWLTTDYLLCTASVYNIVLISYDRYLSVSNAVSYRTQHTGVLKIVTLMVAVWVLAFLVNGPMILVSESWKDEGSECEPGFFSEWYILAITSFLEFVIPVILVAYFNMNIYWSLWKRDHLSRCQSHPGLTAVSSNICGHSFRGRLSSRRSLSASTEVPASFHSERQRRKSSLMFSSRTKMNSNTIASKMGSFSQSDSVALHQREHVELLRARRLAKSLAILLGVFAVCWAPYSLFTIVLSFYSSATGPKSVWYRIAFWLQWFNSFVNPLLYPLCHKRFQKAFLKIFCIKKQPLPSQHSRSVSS
T6 sequence (P25021 whole entry): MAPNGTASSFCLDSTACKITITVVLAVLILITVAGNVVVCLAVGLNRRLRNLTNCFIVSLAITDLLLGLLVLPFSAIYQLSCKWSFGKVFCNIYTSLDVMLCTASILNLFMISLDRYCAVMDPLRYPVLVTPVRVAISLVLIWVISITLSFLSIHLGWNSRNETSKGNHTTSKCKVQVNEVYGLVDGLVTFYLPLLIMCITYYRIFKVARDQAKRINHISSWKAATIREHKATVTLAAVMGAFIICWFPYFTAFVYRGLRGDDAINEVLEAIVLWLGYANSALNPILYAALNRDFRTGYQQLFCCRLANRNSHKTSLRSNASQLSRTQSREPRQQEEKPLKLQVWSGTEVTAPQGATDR

Take `O=C(c1ccc(OCCCN2CCC(c3ccncc3)CC2)cc1)C1CC1` [Compound 5]: the Ki in data set [1] was 0.008 µM; at hH1R [2] it was greater than 10 µM; on σ2R [3] (setting [8]) it was 0.0224 ± 0.00413 µM; on σ2R [3] (setting [9]), 0.022 µM and 0.0224 µM; on σ1R (setting [10]) it was 0.00364 ± 0.00074 µM; at σ1R (setting [11]) it was 0.00364 µM. Besides, on human H3R, the Kb is 0.0188 µM. Besides, the “functional character at σ1 receptor deduced in vivo” value in the data set with female CD1 mice was “σ1 receptor antagonists”. The “effect on loperamide-induced antinociception” value in the data set on female CD1 mice (setting [12]) was “increased the antinociceptive effect of loperamide at the injected paw”. Moreover, the “effect alone on struggle response latency to mechanical stimulus” value (“effect alone” below) in the data set on female CD1 mice (mice, ipl 100 μg) is given as “did not have any effect per se”.

On to `c1ccc(-c2ccc(OCCCN3CCCCC3)cc2)cc1` [Compound 11], for which the Ki at σ2R [3] (setting [8]) is 0.0679 ± 0.00751 µM; at σ2R [3] (setting [9]), 0.068 µM and 0.0679 µM; on hH1R [4], greater than 10 µM; at hH4R, greater than 10 µM; at hH2R, greater than 100 µM; at σ1R (setting [10]), 0.00441 ± 0.00058 µM. The same molecule displayed a Ki at σ1R (setting [11]) of 0.00441 µM. Moreover, the “functional character at σ1 receptor deduced in vivo” value with female CD1 mice is “σ1 receptor antagonists”. Besides, the “effect on loperamide-induced antinociception” value with female CD1 mice (mice, ipl 50 μg + loperamide 4 mg/kg sc) was “increased the antinociceptive effect of loperamide at the injected paw”. The “effect alone” value in the data set with female CD1 mice (mice, ipl 50 μg) is given as “did not have any effect per se”.

Take `CN(C)c1ccncc1` [DMAP]: in [5], the pKa is 9.2.

On to `Clc1ccc(CCCOCCCN2CCCCC2)cc1` [PIT, Pitolisant], for which the IC50 in the data set with σ2R [6] (read-out: σ2R IC50 (binding)) is 0.00855 µM; on σ2 receptor (read-out: IC50, decrease of haloperidol-induced calcium release (antagonist)), 10 µM. In the data set with σ2 receptor, the “agonist activity in σ2 receptor-mediated calcium flux functional assay” value is given as “did not elicit agonist activity”. Besides, the EC50 at σ1 receptor was 0.402 µM.

As for `O=C(OCCN1CCOCC1)C1(c2ccccc2)CCCCC1` [PRE-084, 2-[4-morpholinethyl]1-phenylcyclohexanecarboxylate hydrochloride], the Ki on σ2R [6] (Table S1, well-known ligands (test set), no reference given, read-out: Exp. σ2 Ki) was 13.1 µM; on σ2R [6] (reference σ1R ligands, read-out: σ2R Ki), greater than 10 µM; in data set [7], greater than 10 µM. For the same molecule, the “effect of coadministration on potentiation of loperamide antinociception by S1RA” value in the data set on female CD1 mice (mice, 75 μg ipl with S1RA, loperamide-treated, identical with 5 or 11) is “completely abolished the effect of the σ1R antagonist”.

Turning to `Cc1cc(OCCN2CCOCC2)nn1-c1ccc2ccccc2c1` [S1RA, 4-[2-[[5-methyl-1-(2-naphthalenyl)-1H-pyraol-3-yl]oxy]ethyl]morpholine hydrochloride, reference compound], the “effect on loperamide-induced antinociception” value with female CD1 mice (setting [12]) is on record as “significantly increased the antinociceptive effect induced by loperamide”. Further, in the data set on female CD1 mice (mice, ipl 100 μg), the “effect alone” value is “did not change the response to the mechanical stimulus”. For the same molecule, the Ki in [7] was greater than 10 µM.

Values taken from PMC8739840, “Structural and Molecular Insight into Piperazine and Piperidine Derivatives as Histamine H3 and Sigma-1 Receptor Antagonists with Promising Antinociceptive Properties” (ACS Chemical Neuroscience, 2021).
